{
  "source": "patent US10501454B2",
  "about": "“Monocyclic β-lactam-siderophore conjugate, and preparation method and use thereof” (Shanghai Institute of Materia Medica, Chinese Academy of …, priority 2016, dated 2019)",
  "key": {"[1]": {"system": "Escherichia coli ATCC 35218", "assay": "MIC, broth microdilution, iron-deficient MH medium", "format": "cell-based", "conditions": "iron-deficient MH medium (16 mg/L 2,2'-bipyridine); quality control strain", "protocol": "(§1) Strain for quality control: Escherichia coli ATCC35218, purchased from National Center of Clinical Laboratory.\n(§2) Medium: MH liquid medium (OXOID).\n(§3) Culture condition: cells were incubated at 35-37° C. for 16-18 h.\n(§4) The broth microdilution method recommended by Clinical and Laboratory Standards Institute (CLSI), Performance Standards for Antimicrobial Susceptibility Testing; Twenty-Third Informational Supplement, M02-All, M07-A9 and M11-A8, 2013 was used to determine the MIC value of each test sample against each test strain in the normal MH medium and iron-deficient MH medium.\n(§5) BPL was added to the normal MH medium to obtain a final concentration of 16 mg/L; According to the method in Section 1.2.1, 100 μl of each test sample solution at different concentrations was aspirated to the 1st to 10th well in a 96-well sterile polystyrene plate to obtain the final drug concentrations of 16, 8, 4, 2, 1, 0.5, 0.25, 0.125, 0.06, and 0.03 mg/L, respectively. Then, 100 μl of the test bacterial liquid was added to each well (200 μl per well), and the final concentration of the bacterial liquid was approximately 10^4 CFU/ml. After sealing, it was placed in a 35-37° C. incubator for 18-20 hours for testing the result. The OD600 value was measured by a microplate reader, Minimal Inhibitory Concentration (MIC) of a drug is the lowest concentration of the drug which prevents growth of bacteria in the wells."}, "[2]": {"system": "Klebsiella pneumoniae (4 strains)", "assay": "MIC, broth microdilution, normal MH medium", "format": "cell-based", "conditions": "multi-drug resistant clinical isolates (KPC2)", "protocol": "(§6) Supplier of the strains: all of the above strains were provided by Sichuan Primed Shines Bio-tech Co., Ltd. A single colony was isolated by streaking on agar plates for each strain prior to the experiment, and the cells freshly cultured at 37° C. overnight were appropriately diluted for the experiment.\nas §2, §3, §4\n(§7) After diluting each sample to different concentrations with normal MH medium, 100 μl of each test sample solution at different concentrations was separately aspirated onto a 96-well sterile polystyrene plate. Drug solutions were added to the 1st to 10th well with the final concentrations of 16, 8, 4, 2, 1, 0.5, 0.25, 0.125, 0.06, and 0.03 mg/L in each well, respectively. The 11th well, as a blank control, was not added with drugs and bacteria. The 12th well, as a bacterial growth control, was added with bacteria but no drug.\nThe OD600 value was measured by a microplate reader, Minimal Inhibitory Concentration (MIC) of a drug is the lowest concentration of the drug which prevents growth of bacteria in the wells. 1.2.2 MIC in iron-deficient MH medium"}, "[3]": {"system": "Pseudomonas aeruginosa (4 strains)", "assay": "MIC, broth microdilution, iron-deficient MH medium", "format": "cell-based", "conditions": "iron-deficient MH medium (16 mg/L 2,2'-bipyridine); multidrug-resistant clinical isolates (integrator I, IMP4)", "protocol": "as §6, §2, §3, §4, §5"}, "[4]": {"system": "Escherichia coli (4 strains)", "assay": "MIC, broth microdilution, iron-deficient MH medium", "format": "cell-based", "conditions": "iron-deficient MH medium (16 mg/L 2,2'-bipyridine); clinical isolates (ESBLs)", "protocol": "as §6, §2, §3, §4, §5"}, "[5]": {"system": "Klebsiella pneumoniae (4 strains)", "assay": "MIC, broth microdilution, iron-deficient MH medium", "format": "cell-based", "conditions": "iron-deficient MH medium (16 mg/L 2,2'-bipyridine); multi-drug resistant clinical isolates (KPC2)", "protocol": "as §6, §2, §3, §4, §5"}, "[6]": {"system": "Acinetobacter baumannii (4 strains)", "assay": "MIC, broth microdilution, iron-deficient MH medium", "format": "cell-based", "conditions": "iron-deficient MH medium (16 mg/L 2,2'-bipyridine); multidrug-resistant clinical isolates (integron I, OXA23)", "protocol": "as §6, §2, §3, §4, §5"}, "[7]": {"system": "Pseudomonas aeruginosa (4 strains)", "assay": "MIC, broth microdilution, normal MH medium", "format": "cell-based", "conditions": "multidrug-resistant clinical isolates (integrator I, IMP4)", "protocol": "as §6, §2, §3, §4, §7\n(§8) The test bacterial liquid was adjusted to a bacterial suspension of 0.5 Mcfarland standard with physiological saline, and diluted with MH broth at 1:100, and then added to the drug solution so that a final concentration of the bacterial liquid was approximately 10^4 CFU/ml; 100 μl of the bacterial liquid was further added to each of the above wells (the total volume in each well is 200 μl), which was sealed and placed in a 35-37° C. incubator for 18-20 h for testing the result. The OD600 value was measured by a microplate reader, Minimal Inhibitory Concentration (MIC) of a drug is the lowest concentration of the drug which prevents growth of bacteria in the wells. 1.2.2 MIC in iron-deficient MH medium"}, "[8]": {"system": "Escherichia coli (4 strains)", "assay": "MIC, broth microdilution, normal MH medium", "format": "cell-based", "conditions": "clinical isolates (ESBLs)", "protocol": "as §6, §2, §3, §4, §7, §8"}, "[9]": {"system": "Acinetobacter baumannii (4 strains)", "assay": "MIC, broth microdilution, normal MH medium", "format": "cell-based", "conditions": "normal MH medium; multidrug-resistant clinical isolates (integron I, OXA23)", "protocol": "as §6, §2, §3, §4, §7, §8"}, "[10]": {"system": "Escherichia coli ATCC 35218", "assay": "MIC, broth microdilution, normal MH medium", "format": "cell-based", "conditions": "quality control strain", "protocol": "as §1, §2, §3, §4, §7, §8"}, "[11]": {"system": "Escherichia coli ECO-14-4 (ESBLs)", "assay": "In vivo efficacy in mice systemically infected with Escherichia coli ECO-14-4 (ESBLs)", "conditions": "Kunming mice, intraperitoneal infection, drug s.c. 0.5 h and 4 h after infection, deaths over 7 days, Bliss method", "protocol": "3.1 Test strains: Clinically isolated pathogenic Escherichia coli ECO-14-4 (ESBLs), supplied by Sichuan Primed Shines Bio-tech Co., Ltd.\n3.2 Test animals: Kunming mice, age: 4 to 5 weeks, weight: 18 to 22 g, half male, half female, SPF grade.\n3.3 Test methods: Mice were randomly divided into several groups, 5 mice for each group, half male and half female, and 5 doses for each test drug: 1.25, 2.5, 5, 10 and 20 mg/kg. The mice were intraperitoneally injected with 0.5 mL of […] CFU/mL bacterial suspension for each mouse, and subcutaneously injected with the drug at the designed dose 0.5 h and 4 h after infection. The subcutaneous injection volume was 0.2 ml/20 g mouse weight; the number of deaths in mice was observed and recorded for 7 consecutive days. According to the number of deaths in mice, the half effective dose ED50 was calculated according to the Bliss method using the DAS 1.0 software, edited by Sun Ruiyuan et al."}},
  "data": [
    {"smiles": "CC1(C)[C@H](NC(=O)/C(=N\\OCc2cc(=O)c(O)cn2O)c2csc(N)n2)C(=O)N1OS(=O)(=O)O", "note": "[BAL30072, reference compound]", "values": [
      {"measurement": "Antibacterial activity MIC, Escherichia coli ATCC 35218", "setting": "[1]", "value": 0.06, "unit": "mg/L"},
      {"measurement": "Antibacterial activity MIC, Klebsiella pneumoniae (4 strains)", "setting": "[2]", "value": "≥64", "unit": "mg/L"},
      {"measurement": "Antibacterial activity MIC, Pseudomonas aeruginosa (4 strains)", "setting": "[3]", "value": "1 to 2", "unit": "mg/L"},
      {"measurement": "Antibacterial activity MIC, Escherichia coli (4 strains)", "setting": "[4]", "value": "0.25 to 1", "unit": "mg/L"},
      {"measurement": "Antibacterial activity MIC, Klebsiella pneumoniae (4 strains)", "setting": "[5]", "value": "≥64", "unit": "mg/L"},
      {"measurement": "Antibacterial activity MIC, Acinetobacter baumannii (4 strains)", "setting": "[6]", "value": "1 to 2", "unit": "mg/L"},
      {"measurement": "Antibacterial activity MIC, Pseudomonas aeruginosa (4 strains)", "setting": "[7]", "value": 2, "unit": "mg/L"},
      {"measurement": "Antibacterial activity MIC, Escherichia coli (4 strains)", "setting": "[8]", "value": 1, "unit": "mg/L"},
      {"measurement": "Antibacterial activity MIC, Acinetobacter baumarmii (4 strains)", "setting": "[9]", "value": "2 to 4", "unit": "mg/L"},
      {"measurement": "Antibacterial activity MIC, Escherichia coli ATCC 35218", "setting": "[10]", "value": 0.125, "unit": "mg/L"},
      {"measurement": "ED50 Subcutaneous injection", "setting": "[11]", "value": 4.19, "unit": "mg/kg"}
    ]}
  ]
}
